Data taken from patent US20260265298A1, “PEPTIDE SUBSTRATES AND INHIBITORS OF CATHEPSIN B” (The Regents of the University of California, priority 2023, published 2026).
[ ]: non-standard residue; d: D form. The star is where a group is joined. AMC = Cc1cc(=O)oc2cc(N*)ccc12; Nle = CCCC[C@H](N)C(=O)O; Cbz = O=C(OCc1ccccc1)*

How the values were obtained:
Format in all cases: biochemical
[1] = target: T1, cathepsin B in homogenates of human neuroblastoma SHSY-5Y and SK-N-MC cells (Homo sapiens, UniProt P07858); assay: Cathepsin B (CA-074-sensitive) activity in human neuroblastoma cell homogenates; details: for cathepsin B activity detected in cell homogenate: pH 4.6; for monitoring of cathepsin B (CA-074-sensitive) activity in cell homogenate: pH 4.6, 5.5, 7.2
T1 construct: homogenates of human neuroblastoma cell lines, SHSY-5Y and SK-N-MC, and mouse microglia cell line, BV2; endogenous in cells; host or cells: SH-SY5Y and SK-N-MC human neuroblastoma cell homogenates
Method: (§1) Cathepsin B activity in human neuroblastoma and mouse microglia. Characterization of Z-Nle-Lys-Arg-AMC substrate in proteolytic activity assays for specific cathepsin B activity of cell homogenates (prepared in 0.32 M sucrose) was conducted at 40 mM citrate phosphate pH 4.6, 5.5, and 7.2, 5 mM DTT, 1 mM EDTA, 100 mM NaCl, 1.2% DMSO, and homogenates of human neuroblastoma cell lines, SHSY-5Y and SK-N-MC, and mouse microglia cell line, BV2. A concentration of 6 μM Z-Nle-Lys-Arg-AMC, Z-Arg-Arg-AMC, and Z-Phe-Arg-AMC substrates were used in the proteolytic activity assays. Cell homogenates were diluted 1:10 prior to addition to assays. […] Assays were performed in 96-well plates at room temperature (25° C.) in a total volume of 100 μl with triplicates. Cell homogenates were incubated with CA-074 or inhibitor controls at RT for 30 minutes in the absence of substrate, followed by addition of substrate and incubation at 37° C. Fluorescence was quantified at 15, 30, and 60 minutes after substrate was added, by a Biotek Synergy HTX microplate reader with excitation at 360 nm, and emission at 460 nm, gain 50, top optics and read height at 1 mm. Prism GraphPad software was used to analyze data.

[2] = target: T2, cathepsin B in homogenates of mouse microglia BV2 cells (Mus musculus, UniProt P10605); assay: Cathepsin B (CA-074-sensitive) activity in mouse microglia cell homogenates; details: for cathepsin B activity detected in cell homogenate: pH 4.6; for monitoring of cathepsin B (CA-074-sensitive) activity in cell homogenate: pH 4.6, 5.5, 7.2
T2 construct: homogenates of human neuroblastoma cell lines, SHSY-5Y and SK-N-MC, and mouse microglia cell line, BV2; endogenous in cells; host or cells: BV2 mouse microglia cells (homogenate; cytosol fraction in the low nutrient stress assay)
Method: as §1

[3] = target: T3, human cathepsin B (Homo sapiens, UniProt P07858); assay: Cathepsin B activity with fluorogenic Z-peptide-AMC substrates (specific activity, pH profile); details: for cleavage by cathepsin B: pH 4.6 and 7.2, 40 μM substrate ('Table 1' comparison)
T3 construct: purchased R & D Systems 953-CY-010
Method: (§2) Cathepsin B activity with Z-Arg-Arg-AMC and Z-Phe-Arg-AMC substrates at pH 4.6 and 7.2. Cathepsin B (0.04 ng/μL) activity was assessed with Z-Arg-Arg-AMC and Z-Phe-Arg-AMC substrates (40 μM final concentration) (Table 1) in 40 mM citrate phosphate buffer pH 4.6 or Tris-HCl pH 7.2 in 1 mM EDTA, 100 mM NaCl, and 5 mM DTT with incubation at room temperature (25° C.) in triplicate and AMC fluorescence readings per second (RFU/s) (excitation 360 nm, emission 460 nm) were recorded over a period of 30 min by BioTek Synergy HTX plate reader (Software Version 3.08.01). Enzyme initial velocity was calculated using the highest slope recorded for 10 consecutive fluorescent readings within the initial 30 min. The mean and standard deviation (SD) were determined from triplicates. RFU/s were converted to pmol/min/μg (specific activity) using AMC standard curves. All data were plotted, calculated, and analyzed using GraphPad Prism (Version 9.4.1).
Analysis of pH-dependent cathepsin B activity with fluorogenic substrates designed from MSPMS data. For comparison of cathepsin B activity at pH 4.6, pH 5.5, and pH 7.2 with multiple fluorogenic substrates, cathepsin B (0.04 ng/μL) was incubated with 40 μM substrates consisting of Z-Lys-Arg-AMC. Z-Phe-Arg-AMC. Z-Arg-Arg-AMC. Z-Gly-Lys-Arg-AMC, Z-Val-Lys-Arg-AMC, Z-Tyr-Lys-Arg-AMC. Z-Phe-Lys-Arg-AMC, Z-Trp-Lys-Arg-AMC, Z-Leu-Lys-Arg-AMC, Z-Ala-Lys-Arg-AMC, Z-Nle-Arg-Arg-AMC, and Z-Nle-Lys-Arg-AMC. AMC product formation (RFU/s) was monitored in 40 mM citrate phosphate, pH 4.6 and pH 7.2, 1 mM EDTA, 100 mM NaCl, and 5 mM DTT was determined from the average of RFU/s triplicates at each pH condition.
For analysis of pH-dependent activity cathepsin B (0.04 ng/μL), proteolytic activity was monitored over the pH range of pH 2.2-9.0 in 40 mM citrate phosphate (pH 2.2 to pH 6.6) and 40 mM Tris-HCl (pH 7.0 to 9.0), 1 mM EDTA, 100 mM NaCl, and 5 mM DTT, with preincubation in each pH buffer for 10 min prior to initiating the assay by addition of Z-Nle-Lys-Arg-AMC, Z-Arg-Arg-AMC, or Z-Phe-Arg-AMC to a final concentration of 40 μM to generate the pH curve data.

[4] = target: T4, cathepsin S (Homo sapiens, UniProt P25774); assay: Substrate selectivity: cleavage of AMC substrates by cathepsin S
T4 construct: purchased R & D Systems 1183-CY-010
Method: as §2
(§3) […] Z-Arg-Arg-AMC, and Z-Nle-Lys-Arg-AMC, activity was monitored in 40 mM citrate phosphate (pH 4.6, pH 5.5 and pH 7.2), 1 mM EDTA, 100 mM NaCl, and 5 mM DTT for cathepsin B (0.04 ng/μL), cathepsin K (0.03 ng/μL), cathepsin L (0.03 ng/μL), cathepsin S (0.14 ng/μL), cathepsin V (0.04 ng/μL), and cathepsin X (0.20 ng ng/μL). Since cathepsin X cannot cleave any of the AMC substrates, MCARPPGFSAFK(Dnp)-OH (R & D Systems #ES005) was used to verify that cathepsin X was active.

[5] = target: T5, cathepsin V (Homo sapiens, UniProt O60911); assay: Substrate selectivity: cleavage of AMC substrates by cathepsin V
T5 construct: purchased R & D Systems 1080-CY-010
Method: as §2, §3

[6] = target: T6, cathepsin K (Homo sapiens, UniProt P43235); assay: Substrate selectivity: cleavage of AMC substrates by cathepsin K
T6 construct: active cathepsin K (Abcam, #ab157067); purchased Abcam ab157067
T6 sequence (P43235 115-329): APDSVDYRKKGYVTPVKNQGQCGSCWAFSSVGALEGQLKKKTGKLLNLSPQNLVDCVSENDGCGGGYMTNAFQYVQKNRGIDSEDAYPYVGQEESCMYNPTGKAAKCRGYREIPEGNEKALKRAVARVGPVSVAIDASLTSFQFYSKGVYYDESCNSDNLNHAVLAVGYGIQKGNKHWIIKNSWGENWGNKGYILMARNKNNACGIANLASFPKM

[7] = target: T7, cathepsin L (Homo sapiens, UniProt P07711); assay: Substrate selectivity: cleavage of AMC substrates by cathepsin L
T7 construct: active cathepsin L (R & D Systems, #952-CY-010); purchased R & D Systems 952-CY-010
Method: [Worded in the source for another target; used here, by the source, with some conditions changed.] as §2
For evaluation of cathepsin B and cysteine cathepsins for substrate selectivity each cathepsin was incubated with 4 μM substrates consisting of Z-Phe-Arg-AMC. Z-Arg-Arg-AMC, and Z-Nle-Lys-Arg-AMC, activity was monitored in 40 mM citrate phosphate (pH 4.6, pH 5.5 and pH 7.2), 1 mM EDTA, 100 mM NaCl, and 5 mM DTT for cathepsin B (0.04 ng/μL), cathepsin K (0.03 ng/μL), cathepsin L (0.03 ng/μL), cathepsin S (0.14 ng/μL), cathepsin V (0.04 ng/μL), and cathepsin X (0.20 ng ng/μL). Since cathepsin X cannot cleave any of the AMC substrates, MCARPPGFSAFK(Dnp)-OH (R & D Systems #ES005) was used to verify that cathepsin X was active.

[8] = target: T8, mouse cathepsin B (Mus musculus, UniProt P10605); assay: Mouse cathepsin B specific activity with AMC substrates; details: pH 4.6, 5.5 and 7.2; 40 μM substrate
T8 construct: purchased R & D Systems 965-CY-010
Method: FIGS. 11a-11b. […] (FIG. 11a) pH-dependence of mouse cathepsin B activity with Z-Nle-Lys-Arg-AMC compared to Z-Arg-Arg-AMC and Z-Phe-Arg-AMC substrates. Cathepsin B specific activity with the three different substrates (40 μM) were assessed at pH 4.6, 5.5, and 7.2. Data points are shown as the mean+SD (n=3).

[9] = target: T3, human cathepsin B; assay: Cathepsin B activity with fluorogenic Z-peptide-AMC substrates (specific activity, pH profile); details: pH 4.6 and pH 7.2; substrates at 4 μM (FIG. 3)
[10] = CA-074 1 μM, 30 min pre-incubation
[11] = pH 4.6 and 7.2, 40 μM substrate ('Table 1' comparison)
[12] = pH 4.6, 5.5 and 7.2 (FIGS. 5a-5c)

T4 sequence (P25774 115-331): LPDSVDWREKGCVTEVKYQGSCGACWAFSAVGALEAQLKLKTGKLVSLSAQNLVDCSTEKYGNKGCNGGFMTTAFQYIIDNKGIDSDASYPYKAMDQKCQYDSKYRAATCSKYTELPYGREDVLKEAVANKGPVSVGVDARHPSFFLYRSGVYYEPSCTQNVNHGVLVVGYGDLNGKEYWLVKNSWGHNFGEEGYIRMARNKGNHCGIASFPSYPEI
T8 sequence (P10605 80-333 limits assumed): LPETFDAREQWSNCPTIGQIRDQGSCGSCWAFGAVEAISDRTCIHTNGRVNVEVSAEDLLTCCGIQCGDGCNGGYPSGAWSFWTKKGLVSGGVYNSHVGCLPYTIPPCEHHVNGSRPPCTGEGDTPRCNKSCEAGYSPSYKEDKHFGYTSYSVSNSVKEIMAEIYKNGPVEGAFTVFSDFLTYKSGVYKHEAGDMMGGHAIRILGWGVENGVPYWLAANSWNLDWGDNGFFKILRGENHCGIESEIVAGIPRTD
T2 sequence (P10605 80-333): as the sequence (P10605 80-333 limits assumed) above
T7 sequence (P07711 114-333): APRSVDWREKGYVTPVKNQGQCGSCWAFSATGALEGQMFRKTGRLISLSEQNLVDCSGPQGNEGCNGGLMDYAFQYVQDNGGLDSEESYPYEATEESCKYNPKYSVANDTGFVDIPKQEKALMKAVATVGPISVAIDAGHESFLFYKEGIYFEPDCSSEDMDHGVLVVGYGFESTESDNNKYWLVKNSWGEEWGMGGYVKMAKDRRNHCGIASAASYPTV
T5 sequence (O60911 114-334): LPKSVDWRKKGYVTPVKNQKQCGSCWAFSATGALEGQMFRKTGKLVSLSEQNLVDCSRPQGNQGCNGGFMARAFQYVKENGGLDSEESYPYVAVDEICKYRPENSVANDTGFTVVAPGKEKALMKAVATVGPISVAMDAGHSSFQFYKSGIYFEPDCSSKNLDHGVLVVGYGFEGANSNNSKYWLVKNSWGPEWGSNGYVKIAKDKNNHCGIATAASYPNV

In the case of `CCCNC(=O)[C@H]1O[C@@H]1C(=O)N[C@H](C(=O)N1CCC[C@H]1C(=O)O)[C@@H](C)CC` [CA-074], the “effect on cathepsin B activity in cell homogenate” value [1, 10] is reported as “inhibition” and the “effect on cathepsin B activity in cell homogenate” value [2, 10] is reported as “inhibition”.
In the case of Cbz-Arg-Arg-{AMC}, the “cleavage by cathepsin B at acidic pH” value ([3]; pH 4.6, 40 μM substrate) is reported as “poor cleavage activity”, the “cleavage by cathepsin B” value [3] is reported as “cleaved by cathepsin B and other cysteine cathepsins L, K, S, and V” and the “specific activity at acidic pH as fraction of specific activity at neutral pH” value ([3]; pH 4.6 vs pH 7.2) is reported as “one-third”. The “cleavage by cathepsin B at neutral pH” value ([3]; pH 7.2, 40 μM substrate) was “readily cleaved”, the “cleavage by cathepsin S” value [4, 11] was “cleaved by cathepsin B and other cysteine cathepsins L, K, S, and V” and the “cleavage by cathepsin V” value [5, 12] was “cleaved by cathepsins L and V”. For the same molecule, the “cleavage by cathepsin V” value [5, 11] was “cleaved by cathepsin B and other cysteine cathepsins L, K, S, and V”, the “cathepsin B activity detected in cell homogenate” value (from here on “cathepsin B activity detected”) [1] was “none or little activity” and the “monitoring of cathepsin B (CA-074-sensitive) activity in cell homogenate” value (“monitoring of cathepsin B” below) [1] was “only low cathepsin B activity”. The “cleavage by cathepsin K” value [6, 11] was “cleaved by cathepsin B and other cysteine cathepsins L, K, S, and V”, the “cleavage by cathepsin L” value [7, 12] was “cleaved by cathepsins L and V” and the “cleavage by cathepsin L” value [7, 11] was “cleaved by cathepsin B and other cysteine cathepsins L, K, S, and V”. For the same molecule, the “cathepsin B activity detected” value [2] was “none or little activity”, the “monitoring of cathepsin B” value [2] was “only low cathepsin B activity” and the “mouse cathepsin B specific activity” value [8] was “low”.
For Cbz-Leu-Lys-Arg-{AMC}, the “cathepsin B specific activity compared among substrates” value [9] was “less activity than Z-Nle-Lys-Arg-AMC”.
In the case of Cbz-Lys-Arg-{AMC}, the “cathepsin B specific activity compared among substrates” value [9] is reported as “lower activity than Z-Nle-Lys-Arg-AMC”.
For Cbz-Phe-Arg-{AMC}, the “cleavage by cathepsin B” value [3] was “cleaved by cathepsin B and other cysteine cathepsins L, K, S, and V”, the “cleavage by cathepsin S” value [4, 11] was “cleaved by cathepsin B and other cysteine cathepsins L, K, S, and V” and the “cleavage by cathepsin V” value [5, 12] was “also cleaved by cathepsins K and V”. For the same molecule, the “cleavage by cathepsin V” value [5, 11] was “cleaved by cathepsin B and other cysteine cathepsins L, K, S, and V”, the “monitoring of cathepsin B” value [1] was “detected cathepsin B as well as other cysteine cathepsin activity” and the “cleavage by cathepsin K” value [6, 12] was “also cleaved by cathepsins K and V”. For the same molecule, the “cleavage by cathepsin K” value [6, 11] was “cleaved by cathepsin B and other cysteine cathepsins L, K, S, and V”, the “cleavage by cathepsin L” value [7, 12] was “cleaved by cathepsin L with greater activity than that for cathepsin B” and the “cleavage by cathepsin L” value [7, 11] was “cleaved by cathepsin B and other cysteine cathepsins L, K, S, and V”. The “monitoring of cathepsin B” value [2] was “detected cathepsin B as well as other cysteine cathepsin activity” and the “mouse cathepsin B specific activity” value [8] was “moderate specific activity”.
In the case of Cbz-[Nle]-Arg-Arg-{AMC}, the “less activity compared to Z-Nle-Lys-Arg-AMC” value ([3]; pH 4.6) is reported as “about 30%” and the “less activity compared to Z-Nle-Lys-Arg-AMC” value ([3]; pH 7.2) is reported as ~50%.
For Cbz-[Nle]-Lys-Arg-{AMC}, the “pH of maximal activity” value ([3]; pH profile pH 2 to 9) was 5.5-6.5 pH, the “cleavage by cathepsin S” value [4, 12] was “not cathepsins L. K. S, and V activities” and the “cathepsin B specific activity compared among substrates” value [9] was “higher than all other substrates at both pHs”. The “cleavage by cathepsin V” value [5, 12] was “not cathepsins L. K. S, and V activities”, the “cathepsin B activity detected” value [1] was “robust cathepsin B activity” and the “monitoring of cathepsin B” value [1] was “highly sensitive for monitoring cathepsin B activity”. The “cleavage by cathepsin K” value [6, 12] was “not cathepsins L. K. S, and V activities”, the “cleavage by cathepsin L” value [7, 12] was “not cathepsins L. K. S, and V activities” and the “cathepsin B activity detected” value [2] was “robust cathepsin B activity”. The “monitoring of cathepsin B” value [2] was “highly sensitive for monitoring cathepsin B activity” and the “mouse cathepsin B specific activity” value [8] was “highest specific activity”.
